Laboratory results from article PMC12374823, “A Small Molecule Selectively Targets N-Myc to Suppress Neuroblastoma Cancer Progression” (International Journal of Biological Sciences, 2025).

Columns and labels:
c-Myc = target: T1, c-Myc (Homo sapiens, UniProt P01106); test: microscale thermophoresis (MST) with labeled recombinant c-Myc; type: binding
T1 construct: c-Myc^1-439

N-Myc = target: T2, N-Myc (Homo sapiens, UniProt P04198); test: microscale thermophoresis (MST) with labeled purified N-Myc; supported by CETSA in cells; type: binding
T2 construct: gene MYCN; N-Myc^1-464
T2 sequence (P04198 1-464): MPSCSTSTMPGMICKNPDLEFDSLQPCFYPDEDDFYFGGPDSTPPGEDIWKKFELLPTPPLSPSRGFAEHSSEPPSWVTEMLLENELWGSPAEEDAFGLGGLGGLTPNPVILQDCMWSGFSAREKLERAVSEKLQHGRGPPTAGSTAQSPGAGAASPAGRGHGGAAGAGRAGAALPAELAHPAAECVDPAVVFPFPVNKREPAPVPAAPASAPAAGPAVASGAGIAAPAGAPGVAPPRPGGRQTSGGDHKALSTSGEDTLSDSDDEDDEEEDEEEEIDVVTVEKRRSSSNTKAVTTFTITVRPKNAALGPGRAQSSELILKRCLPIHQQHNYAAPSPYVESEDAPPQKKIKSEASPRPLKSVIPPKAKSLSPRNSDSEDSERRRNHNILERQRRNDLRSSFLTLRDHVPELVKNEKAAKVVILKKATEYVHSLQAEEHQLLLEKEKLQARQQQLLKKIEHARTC

T1 sequence (P01106 16-454): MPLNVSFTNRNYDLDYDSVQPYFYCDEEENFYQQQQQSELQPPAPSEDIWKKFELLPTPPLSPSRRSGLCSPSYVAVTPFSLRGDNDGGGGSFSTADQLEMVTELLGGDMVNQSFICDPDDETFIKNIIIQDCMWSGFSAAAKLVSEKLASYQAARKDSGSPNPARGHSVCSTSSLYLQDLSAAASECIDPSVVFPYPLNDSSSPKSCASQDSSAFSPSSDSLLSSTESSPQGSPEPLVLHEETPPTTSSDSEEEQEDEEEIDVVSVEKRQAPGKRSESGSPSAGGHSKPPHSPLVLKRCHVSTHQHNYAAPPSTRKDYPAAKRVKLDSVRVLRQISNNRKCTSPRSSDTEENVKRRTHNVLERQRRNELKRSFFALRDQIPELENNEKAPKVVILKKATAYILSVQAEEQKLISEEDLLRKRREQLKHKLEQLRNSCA

## COc1ccc(-n2nc3ccc(NC(=O)CBr)cc3n2)cc1 [N78]
c-Myc
  Kd: 8.48 ± 2.61 µM
N-Myc
  Kd: 1.47 ± 0.52 µM
